# According to patent US12421216B2, “Voruciclib polymorphs and methods of making and using thereof” (MEI PHARMA, INC., priority 2019, dated 2025):
# Entries after “also recorded” stand apart in the source; their conditions may differ. Structures can show the parent of a compound that is named as a salt.
# Tests used:
# Type in all cases: physicochemical
# [1] = Solubility of salts in water and in 0.2 M phosphate buffer pH 6 at 37° C. after 4 hours (HPLC-DAD); settings: for Dissolution behaviour in aqueous media (gelling, wettability): salt screen, water and/or 0.2 M phosphate buffer pH 6; for pH (4 h): pH at end of equilibration
# Outline: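 About 5 mg of salt received 200 μL aliquots of water or 0.2 M phosphate buffer pH 6, up to 1 mL, and was stirred at 37 °C for 4 h. After centrifugation and 0.2 […] PTFE filtration, dissolved concentration was determined by HPLC-DAD against voruciclib calibration, and final pH was recorded.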
# [2] = Qualitative solubility determination in water at room temperature, with observation of gel formation; settings: for Behaviour upon addition of water (gel formation): small amount of water added to solid
# Protocol: The aqueous solubility of Oxa2 (starting material) was assessed by the qualitative solubility determination approach. To 5.4 mg of Oxa2, water was added in steps of 50 μl until the material was dissolved (Exp. ID: SAS1). Visual inspection by the naked eye was used to decide whether complete dissolution occurred.
# After the addition of 7.5 ml water, Oxa2 was not dissolved in water at room temperature. The suspension was heated to 50° C. upon which complete dissolution occurred, as indicated by a clear solution.
# The aqueous solubility of Pho1 (Exp. ID: TCP23) was assessed by the qualitative solubility determination approach. To 5.6 mg of Pho1, water was added in steps of 50 μl until the material was dissolved (Exp. ID: SAS2). Visual inspection by the naked eye was used to decide whether complete dissolution occurred. After the addition of 700 μl water, Pho1 was not dissolved in water at room temperature whereas after a subsequent addition of 200 μl water (900 μl in total), the material completely dissolved.
# The solubility of Mao1 in water was determined by adding small aliquots of water to the material until it was dissolved.
# [3] = Physical stability of solid forms upon drying under vacuum, HT-XRPD; settings: for Physical stability upon drying under deep/high vacuum: oxalate, phosphate, malonate forms, 5 mbar, 18 h
# Protocol: (§1) Amorphous voruciclib oxalate salt, generated by freeze-drying, was used to start the thermocycling experiments. Suspensions were prepared in the selected solvent systems at RT. Subsequently, the mixtures were subjected to a temperature profile. After the temperature profile, the solids were separated from the solutions by centrifugation and were dried at ambient conditions and under deep vacuum before being harvested and analyzed by HT-XRPD. The liquid phases were also dried under deep vacuum before being harvested and analyzed by HT-XRPD. All solids were exposed to AAC (40° C./75% RH, 2 days).
# After the temperature profile, the solids were separated from the liquids by centrifugation and the solid phase was dried at ambient conditions and under deep vacuum (5 mbar) before being harvested and analyzed by HT-XRPD. The liquid phases were dried under deep vacuum (5 mbar) and the recovered solids were analyzed by HT-XRPD. All solids were then exposed to accelerated aging conditions (40° C./75% RH, 2 days) followed by HT-XRPD re-analysis.
# as §1, with “voruciclib phosphate” for “voruciclib oxalate”, “profile. Upon completion of” for “profile. After”, “dried under” for “dried at”
# After the temperature profile, the solids were separated from the liquids by centrifugation and the solid phase was dried under ambient conditions and under deep vacuum (5 mbar, 18 h) before being harvested and analyzed by HT-XRPD. The liquid phases were dried under deep vacuum (5 mbar, 18 h) and the recovered solids were analyzed by HT-XRPD. All solids were then exposed to accelerated aging conditions (40° C./75% RH, 2 days) followed by HT-XRPD re-analysis.
# Amorphous voruciclib malonate salt, generated by freeze-drying, was used to start the thermocycling experiments. Suspensions were prepared in the selected solvent systems at RT and were subjected to three thermocycles between 50 and 5° C., followed by aging at 25° C. for 3 days. Upon completion of the aging time, the solids were separated from the liquids by centrifugation and they were dried at ambient conditions and under deep vacuum (5 mbar) before being harvested and analyzed by HT-XRPD.
# After the temperature profile the solids were separated from the solution by centrifugation and they were dried at ambient conditions and under deep vacuum before being harvested and analyzed by HT-XRPD.
# [4] = 0.2 M phosphate buffer pH 6, 37° C., 4 hours
# [5] = 0.2M phosphate buffer pH 6, 37° C., 4 hours, about 1 mg salt in 1 mL
# [6] = 0.2M phosphate buffer pH 6, 37° C., 4 hours, about 5 mg salt in 1 mL
# [7] = 0.2 M phosphate buffer pH 6, 37° C., 4 hours, XRPD
# [8] = 0.2M phosphate buffer pH 6, 37° C., about 1 mg salt in 1 mL
# [9] = 0.2M phosphate buffer pH 6, 37° C., about 5 mg salt in 1 mL
# [10] = water, 37° C., 4 hours, about 1 mg salt in 1 mL
# [11] = water, 37° C., 4 hours, about 5 mg salt, up to 1 mL
# [12] = water, 37° C., about 1 mg salt in 1 mL
# [13] = water, 37° C., about 5 mg salt, up to 1 mL
Compound,"Dissolution behaviour in aqueous media (gelling, wettability) [1]",Behaviour upon addition of water (gel formation) [2],Physical stability upon drying under deep/high vacuum [3],"Solubility in phosphate buffer [1, 4]","solubility [1, 5]","solubility [1, 6] [µg/mL]","Solids recovered / salt dissociation after solubility determination in buffer [1, 7]","Form (4 h) of residual solid [1, 8]","pH (4 h) [1, 8]","Form (4 h) of residual solid [1, 9]","pH (4 h) [1, 9]","solubility [1, 10]","solubility [1, 11]","pH (4 h) [1, 12]","pH (4 h) [1, 13]",further results
"CN1CC[C@H](c2c(O)cc(O)c3c(=O)cc(-c4ccc(C(F)(F)F)cc4Cl)oc23)[C@H]1CO (stereo in doubt) [voruciclib malonate, 2-(2-chloro-4-(trifluoromethyl)phenyl)-5,7-dihydroxy-8-((2S,3R)-2-(hydroxymethyl)-1-methylpyrrolidin-3-yl)-4H-chromen-4-one malonate salt]",no gelling,gelling was not observed when exposed to water,–,–,–,–,–,–,–,–,–,–,–,–,–,"Solubility pH 6 [1, 4]: 0.07 mg/mL; Solubility water ([1]; water, 37° C., 4 hours): 4400 µg/mL; solubility at 4 h ([1]; water, 37 °C, thermodynamic from solid, secondary salt screen (FIG. 290)): > 5000 µg/mL"
CN1CC[C@@H](c2c(O)cc(O)c3c(=O)cc(-c4ccc(C(F)(F)F)cc4Cl)oc23)[C@@H]1CO.O=C(O)CC(=O)O [Mao1],there was no gelling or increase in viscosity observed,no gel-formation was observed; also recorded: gel formation was not observed,physically stable,70 µg/mL,20 µg/mL,70,dissociation of the salt occurred,Free,6.2,Free,5.8,(0.9) mg/mL,4440 µg/mL,4.1,3.5,"Solubility in water ([1]; water, 37° C., 4 hours): 4400 µg/mL; Solids recovered after solubility determination in water ([1]; water, 37° C., 4 hours, XRPD): the solids recovered were still identical to Mao1; Form (4 h) of residual solid [1, 13]: Mao1; Solubility in water at room temperature ([2]; qualitative determination by adding aliquots of water, visual): approximately 13 mg/ml"
CN1CCC(c2c(O)cc(O)c3c(=O)cc(-c4ccc(C(F)(F)F)cc4Cl)oc23)C1CO.O=P(O)(O)O (centres unmarked) [Pho1],no gelling was observed,became a gel when exposed to water; also recorded: became a gel upon addition of water; also recorded: became a gel-like material,physically stable; also recorded: remained stable,about 0.03 mg/mL,hazy,30,salt had dissociated in the buffer solution,Free,6.0,Free,5.8,(0.9) mg/mL,(5.2) mg/mL,4.6,3.7,"Vacuum ([3]; phosphate salt cooling crystallization, form after drying under deep vacuum (5 mbar), label = ambient-dried form): Pho1; Solid forms Vacuum ([3]; phosphate salt thermocycling solids, form after drying under deep vacuum (5 mbar, 18 h), HT-XRPD, label = ambient-dried form): Pho1"
